Laboratory results: the supplement of paper PMC10331698
± gives the standard deviation of the averaged measurements.

Legend:
Assay in all cases: level (log10 ratio to DMSO vehicle control); higher = higher biomarker level / cell amount than vehicle control
Conditions in all cases: in DMSO
[1] = compound: O=C(O)C(F)(F)C(F)(F)C(F)(F)C(F)(F)C(F)(F)C(F)(F)C(F)(F)C(F)(F)C(F)(F)C(F)(F)C(F)(F)C(F)(F)F [Perfluorotridecanoic acid]
Procedure: (§1)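 BioMAP Diversity Plus panel of 12 human primary cell co-culture systems (3C, 4H, LPS, SAg, BT, BF4T, BE3C, CASM3C, HDF3CGF, KF3CT, MyoF, Mphg). Compounds were added 1 h before stimulation and left for 24 h (MyoF 48 h; BT 72 h for soluble read-outs or 6 d for IgG). Biomarkers were read by ELISA, cytotoxicity by SRB, PBMC viability and proliferation by Alamar Blue. Each well value was divided by the mean of 8 DMSO control wells on the same plate and log10 transformed; duplicate blinded samples were tested at 4 concentrations.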

Hexafluoroglutaric acid = compound: O=C(O)C(F)(F)C(F)(F)C(F)(F)C(=O)O [Hexafluoroglutaric acid]
Procedure: as §1

[2] = compound: O=S(=O)(O)C(F)(F)C(F)(F)C(F)(F)C(F)(F)C(F)(F)C(F)(F)C(F)(F)C(F)(F)F [Perfluorooctanesulfonic acid]
Procedure: as §1

[3] = compound: O=C(O)CCC(F)(F)C(F)(F)C(F)(F)F [3:3 Fluorotelomer carboxylic acid]
Procedure: as §1

[4] = compound: O=C(O)C(F)(F)C(F)(F)C(F)(F)C(F)(F)C(F)(F)C(F)(F)C(F)(F)C(F)(F)Cl [9-Chloro-perfluorononanoic acid]
Procedure: as §1

[5] = compound: OCC(F)(F)C(F)(F)C(F)(F)C(F)(F)C(F)(F)C(F)F [1H,1H,7H-Dodecafluoro-1-heptanol]
Procedure: as §1

Test System | level (log10) ([1]; 1500 nM) | level (log10) ([1]; 4400 nM) | level (log10) ([1]; 13000 nM) | level (log10) ([1]; 40000 nM) | level (log10) (Hexafluoroglutaric acid; 6700 nM) | level (log10) (Hexafluoroglutaric acid; 20000 nM) | level (log10) (Hexafluoroglutaric acid; 60000 nM) | level (log10) ([2]; 6700 nM) | level (log10) ([2]; 20000 nM) | level (log10) ([2]; 60000 nM) | level (log10) ([3]; 6700 nM) | level (log10) ([3]; 20000 nM) | level (log10) ([3]; 60000 nM) | level (log10) ([4]; 6700 nM) | level (log10) ([4]; 20000 nM) | level (log10) ([5]; 6700 nM) | level (log10) ([5]; 20000 nM) | level (log10) ([5]; 60000 nM)
MyoF:SRB | 0.0015 ± 0.0064 | 0.002 ± 0.0014 | 0.0005 ± 0.0021 | 0.002 ± 0.0042 | 0.0015 ± 0.00071 | -0.002 ± 0.0085 | -0.0045 ± 0.0092 | -0.0045 ± 0.00071 | -0.0155 ± 0.00071 | -0.0185 ± 0.019 | 0.0005 ± 0.0021 | 0 ± 0.0028 | -0.0065 ± 0.012 | -0.004 | -0.0605 ± 0.005 | 0.001 ± 0.0085 | -0.0025 ± 0.00071 | -0.007 ± 0.0085
MyoF:TIMP-1 | 0.004 ± 0.0071 | 0.001 ± 0.011 | 0.025 ± 0.0028 | 0.0325 ± 0.0064 | 0.001 ± 0.014 | -0.0545 ± 0.053 | -0.0205 ± 0.0035 | -0.002 ± 0.03 | 0.003 ± 0.0071 | 0.102 ± 0.0021 | -0.053 ± 0.067 | -0.033 ± 0.059 | -0.0275 ± 0.074 | -0.0445 ± 0.063 | -0.006 ± 0.057 | -0.013 ± 0.018 | -0.0025 ± 0.023 | -0.0065 ± 0.046
MyoF:alpha-SM Actin | 0.038 ± 0.067 | 0.041 ± 0.11 | 0.023 ± 0.086 | 0.0055 ± 0.09 | -0.008 ± 0.044 | -0.0065 ± 0.029 | 0.033 ± 0.017 | -0.0015 ± 0.023 | 0.004 ± 0.035 | 0.0105 ± 0.005 | -0.011 ± 0.045 | 0.002 ± 0.023 | -0.0055 ± 0.013 | -0.009 ± 0.028 | -0.022 ± 0.013 | -0.012 ± 0.0014 | 0.0015 ± 0.005 | -0.0115 ± 0.011
MyoF:bFGF | 0.005 ± 0.04 | 0.017 ± 0.028 | 0.0045 ± 0.04 | 0.015 ± 0.0085 | 0.01 ± 0.014 | 0.0105 ± 0.013 | 0.017 ± 0.0014 | -0.004 | -0.0185 ± 0.028 | -0.0125 ± 0.018 | 0.0025 ± 0.0021 | 0.0025 ± 0.0092 | 0.0085 ± 0.0092 | -0.003 ± 0.023 | 0.0085 ± 0.011 | 0.0085 ± 0.0064 | 0.0065 ± 0.015 | 0.0065 ± 0.013
lMphg:CCL2/MCP-1 | -0.0115 ± 0.018 | 0.001 ± 0.017 | -0.004 ± 0.023 | 0.0275 ± 0.028 | -0.046 ± 0.052 | -0.0305 ± 0.037 | -0.0235 ± 0.011 | -0.0055 ± 0.0092 | 0.0015 ± 0.0064 | -0.0075 ± 0.04 | -0.012 ± 0.02 | -0.01 ± 0.018 | 0.017 ± 0.02 | 0.008 ± 0.047 | 0.0025 ± 0.015 | -0.011 ± 0.014 | -0.009 ± 0.024 | 0.0115 ± 0.035
lMphg:CCL3/MIP-1alpha | 0.0065 ± 0.023 | -0.0135 ± 0.013 | 0.004 ± 0.021 | 0.0345 ± 0.032 | -0.0025 ± 0.0078 | 0.0125 ± 0.015 | -0.024 ± 0.052 | -0.0225 ± 0.011 | -0.007 | -0.0035 ± 0.0078 | -0.0105 ± 0.047 | -0.027 ± 0.047 | 0.002 ± 0.02 | 0.0205 ± 0.029 | 0.0045 ± 0.046 | 0.0185 ± 0.063 | 0.0115 ± 0.019 | 0.044 ± 0.0085
lMphg:CD40 | -0.0245 ± 0.021 | -0.0355 ± 0.0064 | -0.051 ± 0.0071 | -0.2 ± 0.057 | -0.0015 ± 0.012 | -0.013 ± 0.0014 | -0.066 ± 0.061 | -0.027 ± 0.013 | -0.0025 ± 0.005 | 0.02 ± 0.0014 | -0.0195 ± 0.064 | -0.028 ± 0.067 | 0.0065 ± 0.018 | -0.0165 ± 0.0064 | -0.0155 ± 0.005 | -0.047 ± 0.082 | -0.0425 ± 0.047 | -0.061 ± 0.071
lMphg:CD62E/E-Selectin | -0.038 ± 0.0028 | -0.045 ± 0.0014 | -0.0395 ± 0.029 | -0.007 ± 0.0071 | -0.0065 ± 0.026 | 0.001 ± 0.02 | -0.0165 ± 0.043 | -0.0015 ± 0.023 | 0.0385 ± 0.013 | 0.186 ± 0.029 | 0.014 ± 0.025 | 0.028 ± 0.023 | 0.0435 ± 0.023 | 0.01 ± 0.0099 | 0.017 ± 0.0042 | -0.0295 ± 0.025 | -0.0265 ± 0.0035 | 0.001 ± 0.048
lMphg:CD69 | -0.0045 ± 0.019 | -0.0685 ± 0.018 | -0.066 ± 0.04 | -0.0555 ± 0.013 | -0.037 ± 0.028 | -0.0325 ± 0.0021 | -0.0525 ± 0.015 | -0.046 | -0.0585 ± 0.029 | -0.102 ± 0.091 | 0.013 ± 0.013 | 0.053 ± 0.047 | 0.035 ± 0.037 | -0.049 ± 0.024 | -0.053 ± 0.016 | -0.0275 ± 0.0021 | -0.0305 ± 0.0064 | -0.018 ± 0.075
lMphg:CD106/VCAM-1 | -0.018 ± 0.0014 | -0.0305 ± 0.012 | -0.0715 ± 0.018 | -0.384 ± 0.1 | 0.0045 ± 0.011 | -0.005 ± 0.0057 | -0.0255 ± 0.00071 | -0.009 ± 0.0099 | -0.005 ± 0.013 | -0.058 ± 0.04 | 0.002 ± 0.013 | 0.009 ± 0.0014 | 0.0045 ± 0.013 | -0.011 ± 0.0099 | -0.016 ± 0.0071 | -0.0115 ± 0.042 | -0.015 ± 0.037 | -0.027 ± 0.047
lMphg:CXCL8/IL-8 | -0.0575 ± 0.0021 | -0.0665 ± 0.012 | -0.0245 ± 0.00071 | -0.0175 ± 0.021 | 0.014 ± 0.0042 | 0.044 ± 0.072 | -0.0185 ± 0.0021 | -0.0385 ± 0.018 | -0.003 ± 0.025 | 0.0585 ± 0.1 | -0.0215 ± 0.059 | -0.001 ± 0.051 | 0.025 ± 0.02 | -0.0145 ± 0.0078 | 0.0115 ± 0.025 | -0.003 ± 0.013 | 0.017 ± 0.025 | 0.042 ± 0.028
lMphg:IL-1alpha | -0.0415 ± 0.0035 | -0.0175 ± 0.0078 | -0.0105 ± 0.052 | -0.0015 ± 0.0092 | -0.004 ± 0.0057 | -0.0095 ± 0.023 | -0.022 ± 0.031 | 0.0015 ± 0.022 | 0.0075 ± 0.013 | 0.017 ± 0.0085 | -0.0005 ± 0.11 | 0 ± 0.057 | 0.028 ± 0.059 | 0.014 ± 0.027 | 0.0635 ± 0.046 | -0.0255 ± 0.056 | -0.0275 ± 0.079 | -0.0735 ± 0.18
lMphg:M-CSF | -0.005 ± 0.0057 | -0.006 ± 0.016 | 0.002 ± 0.0099 | -0.011 ± 0.0099 | -0.028 ± 0.014 | -0.017 ± 0.0042 | -0.0175 ± 0.019 | -0.003 ± 0.013 | -0.008 ± 0.0085 | 0.03 ± 0.0042 | -0.021 ± 0.024 | -0.008 ± 0.0085 | -0.0115 ± 0.0021 | -0.0055 ± 0.0021 | -0.0045 ± 0.0021 | -0.0115 ± 0.005 | -0.0035 ± 0.0078 | 0.0085 ± 0.044
lMphg:SRB | -0.009 ± 0.0085 | -0.0135 ± 0.0035 | 0.002 ± 0.0057 | -0.0085 ± 0.00071 | 0.0035 ± 0.00071 | 0.003 ± 0.0085 | -0.0045 ± 0.0035 | -0.002 ± 0.014 | -0.004 ± 0.018 | 0.009 ± 0.02 | -0.0305 ± 0.026 | -0.0105 ± 0.021 | -0.013 ± 0.0042 | 0.0105 ± 0.0092 | 0.013 ± 0.0042 | -0.018 ± 0.028 | 0.0015 ± 0.005 | -0.0025 ± 0.00071
lMphg:SRB-Mphg | 0.003 ± 0.023 | 0.004 ± 0.0071 | -0.0155 ± 0.022 | 0.0125 ± 0.019 | -0.0075 ± 0.019 | -0.0055 ± 0.005 | 0.0075 ± 0.022 | -0.0005 ± 0.021 | 0.007 ± 0.0071 | 0.0055 ± 0.0035 | -0.019 ± 0.13 | -0.047 ± 0.1 | -0.048 ± 0.12 | 0.01 ± 0.0042 | 0.0055 ± 0.018 | -0.028 ± 0.095 | -0.046 ± 0.0085 | 0.0615 ± 0.052
lMphg:sIL-10 | -0.044 ± 0.0057 | -0.039 ± 0.0042 | -0.022 ± 0.013 | -0.044 ± 0.02 | -0.0745 ± 0.037 | -0.0775 ± 0.056 | -0.102 ± 0.0078 | -0.033 ± 0.076 | -0.0295 ± 0.012 | -0.727 ± 0.099 | -0.049 ± 0.073 | -0.035 ± 0.076 | -0.087 ± 0.016 | 0.0205 ± 0.0078 | -0.015 ± 0.0085 | 0.0085 ± 0.11 | -0.006 ± 0.031 | 0.0485 ± 0.0078
